The source of these data is article PMC11013252, “Exploration of the Antibacterial and Anti-Inflammatory Activity of a Novel Antimicrobial Peptide Brevinin-1BW” (Molecules, 2024).

What is called CC50 is the concentration giving 50% cytotoxicity. Lower therefore signals greater toxicity to the cells.

A short description of data set [1]: LPS-binding assay, checkerboard with S. aureus. Type of data set: cell-based. To be noted: LPS higher than 5 μg/mL, 37 °C, 18 h, OD600. As to the method:
The lipopolysaccharide-binding assay was performed using the checkerboard method. Dissolve and prepare LPS (Solarbio, Beijing, China) and Brevinin-1BW with Muller Hinton (MH), add LPS with a final concentration of 0–160 μg/mL along the X-axis, and add 100–0 μg/mL Brevinin-1BW along the Y-axis. Then, an additional 10^5 CFU of S. aureus was added to bring the final volume to 200 μL. It was incubated at 37 °C for 18 h, measure the OD 600 value, and the MIC value at different LPS concentrations was recorded. The experiment was repeated three times.

The test system of a further data set is RAW264.7. Type of data set: cell-based, mouse. Conditions: 24 h. As to the method: Medium was prepared to contain 10% FBS (TransGen Biotech, China) and 1% penicillin-streptomycin (Biosharp, Guangzhou, China). A549, U-2OS, HePG2, HaCaT, HUVEC, and 293T cells were cultured in DMEM medium (Gibco, New York, NY, USA). A375, HCT116, Hela, and RAW264.7 cells were cultured in RPMI 1640 medium (Gibco, New York, NY, USA). The cytotoxicity of Brevinin-1BW was determined using the Cell Counting Kit-8 as follows: detached the cells from cell culture flasks with 0.25% trypsin, counted with a hemocytometer plate and then prepared into a cell suspension containing 5 × 10^3 cells/mL. Then, 90 μL of the cell suspension was inoculated into a 96-well plate and incubated at 37 °C in a 5% CO2-humidified atmosphere for 24 h. A 10 μL volume of the peptide was subsequently added to each well and co-incubated with the cells for 24 h. Then, 10 μL of CCK8 (Abbkine, Wuhan, China) was added to each well and incubated for a further 2 h. The absorbance of each well at 450 nm was measured using a multifunctional enzyme marker. […] Three replicate wells were set up for each experiment, and each experiment was repeated three times. The formula for calculating the cell viability is shown below.

A further data set deals with E. coli (ATCC25922). In words: microbe, parasite or virus in culture. Type of data set: cell-based. To be noted: ATCC25922, 18 h. As to the method: (§1) The minimum inhibitory concentration (MIC) of the Brevinin-1BW was measured in 96-well microtiter plates according to the Clinical and Laboratory Standards Institute (CLSI). The activated strains were treated with Mueller Hinton Agar (MHA) solid medium. Single colonies were picked and expanded to the logarithmic growth phase, and the solution was diluted to 2 × 10^6 CFU/mL using the McFarland turbidity standard. The MIC was determined with the two-fold dilution method. Briefly, 50 μL of Mueller Hinton (MH) medium was added to a 96-well plate in advance. Then, 50 μL of AMP solution was added to the first well, and 50 μL was pipetted into the next well after mixing using a row gun, while 50 μL was discarded from the last well. Final concentrations of Brevinin-1BW were 100, 50, 25, 12.5, 6.25, and 3.125 μg/mL. A 50 μL volume of the diluted bacterial solution was added, and the final concentration of the bacterial solution was 1 × 10^6 CFU/mL. This was then placed into a 37 °C incubator for 18 h until the next day to observe the degree of turbidity of the 96-well plate and measure the absorbance of the wells at 600 nm with a multifunctional microplate reader (SpectraMax iD5, Molecular Devices, Sunnyvale, CA, USA). The absence of turbidity and the measured concentration of absorbance being less than the opposing group was taken as the MIC. The positive control used ampicillin at the same final concentration as Brevinin-1BW, the negative control used 50 μL of MH medium mixed with 50 μL of 2 × 10^6 CFU/mL bacterial solution, and the blank contained only 100 μL of MH medium. Three replicate wells were set up for each experiment, and each experiment was repeated three times. The MIC and all concentrations above the MIC of bacterial solution coated on MHA solid medium were placed into 37 °C incubator incubation for 18 h. The lowest concentration resulting in no colony growth was taken as the minimum bactericidal concentration (MBC).

The subject of a further data set is E. coli (MDR ATCC35218). Description: microbe, parasite or virus in culture. The format is cell-based, Escherichia coli. Conditions: ATCC35218, 18 h. As to the method: as §1
A short description of another data set: DPPH radical scavenging. To be noted: at 3.125 μg/mL, 37 °C, 30 min in the dark, absorbance 517 nm; without concentration dependence. As to the method:
DPPH^+ scavenging capacity: A 30 mL volume of […], Shanghai, China) solution was prepared with anhydrous ethanol and adjusted to reach an OD517 nm = 0.7. […] The Brevinin-1BW and DPPH solutions were mixed in equal volumes as the experimental group, incubated at 37 °C in the dark for 30 min, and then measured for the absorbance as A2. Vitamin C was used as the positive control. Its clearance rate was calculated according to the following formula: […]
(The DPPH test is a chemical assay of radical scavenging.)

A further data set has as its system sheep erythrocytes. Type of data set: cell-based. To be noted: red cells of sheep, 2 h. As to the method:
A hemolytic assay of Brevinin-1BW was conducted using sheep erythrocytes (Solarbio, Beijing, China) at a concentration of 2% (v/v) of erythrocyte suspension. […] After centrifugation at 1000 rpm for 15 min, the absorbance of the supernatant was analyzed using a multifunctional enzyme standardizer with the wavelength set at 570 nm. The experiment was repeated three times. […] Haemolysis%=(A0−A2)/(A0−A1)×100

≈ marks a conversion by molar mass, not a printed value. Positions of bridges follow the written chain, without caps; N, C: chain ends. Residues, ends and D or L forms follow the SMILES beside them.

Take `CC[C@H](C)[C@@H]1NC(=O)[C@H](CCCCN)NC(=O)[C@@H](NC(=O)[C@H](Cc2ccccc2)NC(=O)[C@@H](NC(=O)[C@@H](NC(=O)[C@@H]2CCCN2C(=O)[C@H](CC(C)C)NC(=O)[C@H](Cc2ccccc2)NC(=O)[C@H](CO)NC(=O)[C@H](C)NC(=O)[C@H](C)NC(=O)[C@H](CC(C)C)NC(=O)CNC(=O)[C@H](C)NC(=O)[C@H](CC(C)C)NC(=O)[C@H](CC(C)C)NC(=O)[C@@H]2CCCN2C(=O)[C@H](CC(C)C)NC(=O)[C@@H](N)Cc2ccccc2)[C@@H](C)O)[C@@H](C)CC)CSSC[C@@H](C(=O)O)NC(=O)[C@H](CCCCN)NC(=O)[C@H](CCCNC(=N)N)NC(=O)[C@H](CO)NC1=O` [Brevinin-1BW] (H-FLPLLAGLAASFLPTIFCKISRKC-OH; disulfide 18-24): the “antibacterial activity against S. aureus in the presence of LPS” value in data set [1] was “gradually decreased”. In addition, the CC50 with RAW264.7 was determined as 32.33 ± 0.47 µg/mL (≈ 12.4 µM). In the data set with E. coli (ATCC25922), this molecule showed an MBC of more than 100 µg/mL and an MIC of 100 µg/mL (≈ 38.3 µM). In addition, in the data set with E. coli (MDR ATCC35218), the MBC is more than 100 µg/mL and the MIC was more than 100 µg/mL. In the data set “DPPH radical scavenging”, the “scavenging of DPPH radicals” value was “more than 70%”. Besides, the “HC50 (50% hemolytic concentration)” value in the data set on sheep erythrocytes was 35.8 µg/mL.
